These results are taken from patent publication US9539237B2, “Compositions and methods for drug-sensitization or inhibition of a cancer cell” (The Texas A&M University System, priority 2012, dated 2017).

Assay [1] concerns CHOP-resistant G3 NHL cells. The experiment in a line: Cell growth assay (resazurin fluorescence) on G3 cells. Type of assay: cell-based, human. How it is done: Compositions were tested on CHOP-resistant G3 NHL cells that had been cultivated in RPMI medium for five days. Prior to assay, the cells were counted by haemocytometer and cell concentration standardized to 625,000 cells/ml. Test drugs were solubilized in 100% DMSO and then diluted to final assay concentration with 0.1M phosphate buffered saline (PBS) and a final DMSO concentration of 0.5%. […] The metabolic dye rezasurin was added to the wells of the assay plate at a final concentration of 20 μg/ml and the plates were incubated for an additional 24 hours. The plates were then read in a BMG Polarstar plate reader at wavelength (573-605) and the data plotted as OD versus increasing dilutions (i.e., decreasing total amounts) of rifabutin derivative concentration.
In these experiments, the following cell lines were used: CHOP-resistant NHL cell line G3, CHOP-sensitive NHL cell line CRL2631, the multi-drug resistant sarcoma cell line MES-SA-Dx5; multi-drug-resistant breast cancer cell line MDA-MB-231, multi-drug resistant ovarian carcinoma cell line SK-OV3, multi-drug resistant ovarian cancer cell line NCI/ADR-RES, drug-sensitive ovarian cancer cell line OVCAR-5, and multi-drug resistant ovarian cancer cell line OVCAR-3. […]

In assay [2] the test system is CRL2631 cells. The experiment in a line: Collagen invasion 3D assay, CRL2631 cells. Type of assay: cell-based, human. Conditions: 10 uM Rifabutin in collagen matrix, 24 hours. How it is done:
The effects of rifabutin on cell invasion was assessed in a collagen invasion 3D assay. Increased interest in the use of 3D culture systems has been motivated by accumulating evidence that 3D models better reflect the microenvironment of tumors and metastases and more accurately predict therapeutic response in vivo compared with conventional 2D assays. A collagen invasion 3D assay allows the rapid and quantitative assessment of invasiveness and a means to screen for drugs which alter the invasive phenotype of tumor cells.
The CHOP-resistant G3 cell line is much more invasive in a collage invasion 3D assay than its CHOP-sensitive parent cell line (CRL2631). Collagen matrices (1 mg/ml) were prepared as previously described in Su. S. C., et al., Molecular profile of endothelial invasion of three-dimensional collagen matrices: insights into angiogenic sprout induction in wound healing. Am. J. Physiol. […] Cell invasion density was quantified by counting fixed cultures under transmitted light using an Olympus CK2 inverted microscope equipped with eyepieces displaying a 10×10 ocular grid. For each condition, four random fields were selected and the number of invading cells per high power field (HPF) was counted manually at 10× magnification, corresponding to 1 mm^2 area. […]

For assay [3], the system named is lymphoma aspirate from a dog with CHOP-resistant lymphoma. The experiment in a line: CHOP responsiveness of lymphoma aspirate from a dog (resazurin). Type of assay: cell-based. As for the experimental part:
A single lymphoma aspirate from a dog with CHOP-resistant lymphoma was tested for responsiveness to CHOP in the presence or absence of rifabutin. CHOP-responsiveness was measured by a decrease in fluorescence signal generated by resazurin.

Take `CO[C@H]1/C=C/O[C@@]2(C)Oc3c(C)c(O)c4c(c3C2=O)C2=NC3(CCN(CC(C)C)CC3)NC2=C(NC(=O)/C(C)=C\C=C\[C@H](C)[C@H](O)[C@@H](C)[C@@H](O)[C@@H](C)[C@H](OC(C)=O)[C@@H]1C)C4=O` [Rifabutin, rifabutin]: in assay [1] (G3), the “Magnitude of potentiation in combination with doxorubicin” value was “+++ (+++ potentiation greater than 5 fold increase)”. Besides, in assay [1] (G3 cells, FIG. 2A), the “Effect on growth of cells in the absence of CHOP” value was “did not affect the growth”. In addition, the “Reduction of the amount of invasion” value in assay [2] was “Less of this effect”. Moreover, in assay [3] (5 μM rifabutin), the “Sensitivity of aspirated lymphoma cells to CHOP” value was “significantly enhanced the sensitivity”. For the same compound, the “Effect on cell viability in the absence of CHOP” value in assay [3] (absence of CHOP) is listed as “no effect”.
